Read-outs that look alike come from different tables or passages of the source.

Assay [1] concerns HeLa S3 (human cervical carcinoma). As to the kind of experiment: MTT cytotoxic activity assay, HeLa S3. Type of assay: cell-based. The note with it: 72 h, mean ± SEM of three replicates. As for the experimental part: (§1) The cytotoxic activity of the isolated compounds was evaluated using the MTT viability assay with doxorubicin as the positive control and the results are presented in Table 2.
(§2) The MTT colorimetric method was performed to evaluate cytotoxic activity of the isolated compounds against human epidermoid carcinoma (KB; ATCC CCL17), human cervical carcinoma (HeLa S3; ATCC CCL2-2), human colon adenocarcinoma (HT-29; ATCC HTB-38), human breast adenocarcinoma (MCF-7; ATCC HTB-22), and human hepatocellular carcinoma (Hep G2; ATCC HB-8065) cell lines according to the previous method. The cancer cells were cultured in MEM containing 10% fetal bovine serum in the presence of 100 U/mL penicillin and 100 μg/mL streptomycin sulphate (Gibco, Rockville, MD, USA), seeded in a 96-well plate (3000 cells/well), and pre-incubated at 37 °C for 24 h in a 5% CO2 humidified atmosphere. The tested compounds with serial concentrations (0.3–100 μM) were added and incubated for a further 72 h in the same condition. At the end of treatment, 20 µL of MTT solution (5 mg/mL in PBS, Sigma, St. Louis, MI, USA) was added to each well and further incubated for 3 h. After centrifugation at 1400 rpm for 5 min at 4 °C, the supernatant was decanted and DMSO (100 µL/well) was added to allow formazan product solubilization, which was subsequently measured by a microplate reader (Tecan Trading AG, Switzerland) at wavelength 550 nm. Control cells were treated with 0.1% DMSO. Doxorubicin (tested concentrations: 0.01–3.0 μM, Sigma) was used as the positive control. The results are expressed as the mean values of three replicates for three independent experiments. IC50 values were determined by graphical analysis using SigmaPlot 10 (Systat Software Inc., San Jose, CA, USA), obtained by plotting the cell viability percentage versus sample concentration.
For orientation: Formazan colour is commonly taken as a measure of viable cells.

For assay [2], the system named is KB (human epidermoid carcinoma). Nature of the assay: MTT cytotoxic activity assay, KB. The format is cell-based. The note with it: 72 h, mean ± SEM of three replicates. As for the experimental part:
as §1, §2

For assay [3], the system named is HeLa S3 (human cervical carcinoma). Also noted: method as in PMID 30153471, PMID 33999337. The conditions noted are these: MTT; results based on previous work; read-out: IC50 ± SEM, HeLa S3; cited from earlier work.
Assay [4] deals with KB (human epidermoid carcinoma). Also noted: method as in PMID 30153471, PMID 33999337. The conditions noted are these: MTT; results based on previous work; read-out: IC50 ± SEM, KB; cited from earlier work.

Broadly, the IC50 is the concentration needed to halve the response being measured. Take `C[C@H]1Oc2c(c(O)c3c(=O)c4ccc(O)c(O)c4oc3c2CCC(C)(C)O)C1(C)C` [Compound 4, gerontoxanthone C hydrate]: the IC50 in assay [1] is 5.6 ± 0.1 µM; in assay [2], 7.5 ± 0.8 µM.

`C[C@@H]1Oc2cc(O)c3c(=O)c4ccc(O)c(O)c4oc3c2C1(C)C` [Compound 7, 2-deprenylrheediaxanthone B]: the IC50 in assay [3] was 6 ± 0.5 µM; in assay [4] it was 5.1 ± 0.4 µM.

The values above are taken from PMC8587515, “Cytotoxic and Anti-Inflammatory Activities of Dihydroisocoumarin and Xanthone Derivatives from Garcinia picrorhiza” (Molecules, 2021).
